Columns and labels:
Type in all cases: in vivo
[1] = test system: Digitaria ciliaris; test: Test Example 4: herbicidal effect test by stem and leaf treatment in upland field; details: Digitaria ciliaris; 120 g per 10 ares; sprayed seven days after sowing, upland soil; 14 days after application; read-out: weed inhibition rate
[2] = test system: Echinochloa crus-galli; test: Test Example 7: herbicidal effect test by soil application in upland field (low dose); details: Echinochloa crus-galli, 7.5 g per 10 ares, sprayed one day after sowing, 14 days after application, read-out: weed inhibition rate
Outline: (§1)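 Pre-emergence soil treatment: 7.5 g a.i. per 10 a applied as water-diluted emulsifiable concentrate (100 L/10 a) to soil surface one day post-sowing in alluvial loam. Inhibition (%) assessed at 14 days, duplicate pots per concentration.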

[3] = test system: Digitaria ciliaris; test: as above; details: Digitaria ciliaris, 7.5 g per 10 ares, sprayed one day after sowing, 14 days after application, read-out: weed inhibition rate
Outline: as §1

[4] = test system: Echinochloa crus-galli var. formosensis; test: Test Example 6: herbicidal effect test by application during growth period of paddy rice (low dose); details: Echinochloa crus-galli; 7.5 g per 10 ares; applied seven days after sowing, flooded pots; 14 days after application; read-out: weed inhibition rate
Outline: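 Paddy soil in flooded Wagner pots (about 3 cm water), weeds sown at 0–1 cm, 30 seeds each, grown in a glass greenhouse. Seven days after sowing, water-diluted emulsifiable concentrate was dropped into the water at 7.5 g active ingredient per 10 ares. Weed inhibition rate (%) was scored 14 days after application, in duplicate.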

[5] = test system: Echinochloa crus-galli var. formosensis; test: Test Example 5: herbicidal effect test by soil application in paddy rice (low dose); details: Echinochloa crus-galli, soil, 336 h; 7.5 g per 10 ares; applied immediately after sowing, flooded pots; 14 days after application; read-out: weed inhibition rate
Outline: (§2)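 Dose of 7.5 g a.i. per 10 ares, applied by dropper as diluted emulsifiable concentrate to flooded (~3 cm) paddy pots immediately after sowing seeds at 0–1 cm. Kept in a glass greenhouse; duplicate pots rated at 14 days post-application.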

[6] = test system: Echinochloa crus-galli var. formosensis; test: Test Example 2: herbicidal effect test by application during growth period of paddy rice; details: Echinochloa crus-galli; 120 g per 10 ares; applied seven days after sowing, flooded pots; 14 days after application; read-out: weed inhibition rate
Outline: (§3)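 Herbicidal effect was scored 14 days after treatment, in duplicate per concentration. Weeds sown 0–1 cm deep in puddled, fertilized paddy soil under about 3 cm of standing water received a water-diluted emulsifiable concentrate by dropper 7 days post-sowing, at 120 g a.i. per 10 ares.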

[7] = test system: Scirpus juncoides; test: as above; details: Schoenoplectiella juncoides; 120 g per 10 ares; applied seven days after sowing, flooded pots; 14 days after application; read-out: weed inhibition rate
Outline: as §3

[8] = test system: Monochoria vaginalis; test: as above; details: Pontederia vaginalis; 120 g per 10 ares; applied seven days after sowing, flooded pots; 14 days after application; read-out: weed inhibition rate
Outline: as §3

[9] = test system: Scirpus juncoides; test: Test Example 5: herbicidal effect test by soil application in paddy rice (low dose); details: Schoenoplectiella juncoides, 336 h, 7.5 g per 10 ares, applied immediately after sowing, flooded pots, 14 days after application, read-out: weed inhibition rate
Outline: as §2

[10] = test system: Monochoria vaginalis; test: as above; details: Pontederia vaginalis, 336 h, 7.5 g per 10 ares, applied immediately after sowing, flooded pots, 14 days after application, read-out: weed inhibition rate
Outline: as §2

[11] = test system: Echinochloa crus-galli; test: Test Example 4: herbicidal effect test by stem and leaf treatment in upland field; details: Echinochloa crus-galli; 120 g per 10 ares; sprayed seven days after sowing, upland soil; 14 days after application; read-out: weed inhibition rate

Cc1ccccc1CO[C@@H]1C[C@]2(C(C)C)O[C@@]1(C)C[C@@H]2O [1-24, (1R,2S,4S,5R)-1-isopropyl-4-methyl-5-((2-methylbenzyl)oxy)-7-oxabicyclo[2.2.1]heptan-2-ol]
≥ 80%: inhibition at 1200 g/ha [1] | inhibition at 75 g/ha [2] | inhibition at 75 g/ha [3] | inhibition at 75 g/ha [4] | inhibition at 75 g/ha [5] | inhibition at 1200 g/ha [6] | inhibition at 1200 g/ha [7] | inhibition at 1200 g/ha [8] | inhibition at 75 g/ha [9] | inhibition at 75 g/ha [10] | inhibition at 1200 g/ha [11]

Cc1ccccc1CO[C@@H]1C[C@]2(C(C)C)O[C@@]1(C)CC2C (stereo partly drawn) [1-83, (1S,2R,4R)-4-isopropyl-1,5-dimethyl-2-((2-methylbenzyl)oxy)-7-oxabicyclo[2.2.1]heptane]
≥ 80%: inhibition at 1200 g/ha [1] | inhibition at 75 g/ha [2] | inhibition at 75 g/ha [3] | inhibition at 75 g/ha [4] | inhibition at 75 g/ha [5] | inhibition at 1200 g/ha [6] | inhibition at 1200 g/ha [7] | inhibition at 1200 g/ha [8] | inhibition at 75 g/ha [9] | inhibition at 75 g/ha [10] | inhibition at 1200 g/ha [11]

CC(C)[C@]12C[C@@H](OCc3ccccc3F)[C@](C)(CC1C)O2 (stereo partly drawn) [1-92, (1S,2R,4R)-2-((2-fluorobenzyl)oxy)-4-isopropyl-1,5-dimethyl-7-oxabicyclo[2.2.1]heptane]
≥ 80%: inhibition at 1200 g/ha [1] | inhibition at 75 g/ha [2] | inhibition at 75 g/ha [3] | inhibition at 75 g/ha [4] | inhibition at 75 g/ha [5] | inhibition at 1200 g/ha [6] | inhibition at 1200 g/ha [7] | inhibition at 1200 g/ha [8] | inhibition at 75 g/ha [9] | inhibition at 75 g/ha [10] | inhibition at 1200 g/ha [11]

CC(C)C1C[C@]2(C)O[C@@]1(C(C)C)C[C@H]2OCc1ccccc1F (stereo partly drawn) [1-133, (1S,2R,4R)-2-[(2-fluorobenzyl)oxy]-4,5-isopropyl-1-methyl-7-oxabicyclo[2.2.1]heptane]
≥ 80%: inhibition at 1200 g/ha [1] | inhibition at 75 g/ha [2] | inhibition at 75 g/ha [3] | inhibition at 75 g/ha [4] | inhibition at 75 g/ha [5] | inhibition at 1200 g/ha [6] | inhibition at 1200 g/ha [7] | inhibition at 1200 g/ha [8] | inhibition at 75 g/ha [9] | inhibition at 75 g/ha [10] | inhibition at 1200 g/ha [11]

CO[C@H]1C[C@]2(C)O[C@@]1(C(C)C)C[C@H]2OCc1ccccc1F [1-156, (1S,2R,4R,5S)-2-((2-fluorobenzyl)oxy)-4-isopropyl-5-methoxy-1-methyl-7-oxabicyclo[2.2.1]heptane]
≥ 80%: inhibition at 1200 g/ha [1] | inhibition at 75 g/ha [2] | inhibition at 75 g/ha [3] | inhibition at 75 g/ha [4] | inhibition at 75 g/ha [5] | inhibition at 1200 g/ha [6] | inhibition at 1200 g/ha [7] | inhibition at 1200 g/ha [8] | inhibition at 75 g/ha [9] | inhibition at 75 g/ha [10] | inhibition at 1200 g/ha [11]

CCO[C@H]1C[C@]2(C)O[C@@]1(C(C)C)C[C@H]2OCc1ccccc1F [1-183, (1S,2R,4R,5S)-5-ethoxy-2-[(2-fluorophenyl)methoxy]-1-methyl-4-isopropyl-7-oxabicyclo[2.2.1]heptane]
≥ 80%: inhibition at 1200 g/ha [1] | inhibition at 75 g/ha [2] | inhibition at 75 g/ha [3] | inhibition at 75 g/ha [4] | inhibition at 75 g/ha [5] | inhibition at 1200 g/ha [6] | inhibition at 1200 g/ha [7] | inhibition at 1200 g/ha [8] | inhibition at 75 g/ha [9] | inhibition at 75 g/ha [10] | inhibition at 1200 g/ha [11]

CC(C)[C@]12C[C@@H](OCc3ccc(F)cc3)[C@](C)(C[C@@H]1Br)O2 [1-691, (1S,2R,4R,5S)-5-bromo-2-[(4-fluorophenyl)methoxy]-1-methyl-4-isopropyl-7-oxabicyclo[2.2.1]heptane]
≥ 80%: inhibition at 1200 g/ha [1] | inhibition at 75 g/ha [2] | inhibition at 75 g/ha [3] | inhibition at 75 g/ha [4] | inhibition at 75 g/ha [5] | inhibition at 1200 g/ha [6] | inhibition at 1200 g/ha [7] | inhibition at 1200 g/ha [8] | inhibition at 75 g/ha [9] | inhibition at 75 g/ha [10] | inhibition at 1200 g/ha [11]

CC(C)[C@]12C[C@@H](OCc3cccc(Cl)c3)[C@](C)(C[C@@H]1Br)O2 [1-692, (1S,2R,4R,5S)-5-bromo-2-[(3-chlorophenyl)methoxy]-1-methyl-4-isopropyl-7-oxabicyclo[2.2.1]heptane]
≥ 80%: inhibition at 1200 g/ha [1] | inhibition at 75 g/ha [2] | inhibition at 75 g/ha [3] | inhibition at 75 g/ha [4] | inhibition at 75 g/ha [5] | inhibition at 1200 g/ha [6] | inhibition at 1200 g/ha [7] | inhibition at 1200 g/ha [8] | inhibition at 75 g/ha [9] | inhibition at 75 g/ha [10] | inhibition at 1200 g/ha [11]

CC(C)[C@]12C[C@@H](OCc3ccsc3)[C@](C)(C[C@@H]1Br)O2 [1-722, (1S,2R,4R,5S)-5-bromo-1-methyl-4-isopropyl-2-(thiophen-3-ylmethoxy)-7-oxabicyclo[2.2.1]heptane]
≥ 80%: inhibition at 1200 g/ha [1] | inhibition at 75 g/ha [2] | inhibition at 75 g/ha [3] | inhibition at 75 g/ha [4] | inhibition at 75 g/ha [5] | inhibition at 1200 g/ha [6] | inhibition at 1200 g/ha [7] | inhibition at 1200 g/ha [8] | inhibition at 75 g/ha [9] | inhibition at 75 g/ha [10] | inhibition at 1200 g/ha [11]

Cc1ccccc1CO[C@@H]1C[C@]2(C(C)C)O[C@@]1(C)C[C@@H]2I [1-741, (1S,2R,4R,5S)-5-iodo-1-methyl-2-[(2-methylphenyl)methoxy]-4-isopropyl-7-oxabicyclo[2.2.1]heptane]
≥ 80%: inhibition at 1200 g/ha [1] | inhibition at 75 g/ha [2] | inhibition at 75 g/ha [3] | inhibition at 75 g/ha [4] | inhibition at 75 g/ha [5] | inhibition at 1200 g/ha [6] | inhibition at 1200 g/ha [7] | inhibition at 1200 g/ha [8] | inhibition at 75 g/ha [9] | inhibition at 75 g/ha [10] | inhibition at 1200 g/ha [11]

C=CCO[C@@H]1C[C@]2(C)O[C@@]1(C(C)C)C[C@H]2OCc1ccccc1F [1-930, (1S,2R,4R,5R)-2-[(2-fluorophenyl)methoxy]-1-methyl-4-isopropyl-5-prop-2-enoxy-7-oxabicyclo[2.2.1]heptane]
≥ 80%: inhibition at 1200 g/ha [1] | inhibition at 75 g/ha [2] | inhibition at 75 g/ha [3] | inhibition at 75 g/ha [4] | inhibition at 75 g/ha [5] | inhibition at 1200 g/ha [6] | inhibition at 1200 g/ha [7] | inhibition at 1200 g/ha [8] | inhibition at 75 g/ha [9] | inhibition at 75 g/ha [10] | inhibition at 1200 g/ha [11]

C#CCO[C@@H]1C[C@]2(C)O[C@@]1(C(C)C)C[C@H]2OCc1ccccc1F [1-931, (1S,2R,4R,5R)-2-[(2-fluorophenyl)methoxy]-1-methyl-4-isopropyl-5-prop-2-ynoxy-7-oxabicyclo[2.2.1]heptane]
≥ 80%: inhibition at 1200 g/ha [1] | inhibition at 75 g/ha [2] | inhibition at 75 g/ha [3] | inhibition at 75 g/ha [4] | inhibition at 75 g/ha [5] | inhibition at 1200 g/ha [6] | inhibition at 1200 g/ha [7] | inhibition at 1200 g/ha [8] | inhibition at 75 g/ha [9] | inhibition at 75 g/ha [10] | inhibition at 1200 g/ha [11]

CC(C)C12CC(OCc3ccccc3F)C(C)(CC1Br)O2 (centres unmarked) [1-1355, 5-bromo-2-[(2-fluorophenyl)methoxy]-1-methyl-4-isopropyl-7-oxabicyclo[2.2.1]heptane]
≥ 80%: inhibition at 1200 g/ha [1] | inhibition at 75 g/ha [2] | inhibition at 75 g/ha [3] | inhibition at 75 g/ha [4] | inhibition at 75 g/ha [5] | inhibition at 1200 g/ha [6] | inhibition at 1200 g/ha [7] | inhibition at 1200 g/ha [8] | inhibition at 75 g/ha [9] | inhibition at 75 g/ha [10] | inhibition at 1200 g/ha [11]

From patent EP4707280A1, “1,4-CINEOLE DERIVATIVE AND INTERMEDIATE THEREOF, HERBICIDE CONTAINING SAID DERIVATIVE AS ACTIVE INGREDIENT, METHOD FOR USING HERBICIDE, AND METHOD FOR PREPARING AGROCHEMICAL COMPOSITION” (HOKKO CHEMICAL INDUSTRY CO., LTD., priority 2023, dated 2024)
